In patent publication US11649255B2, “Indazoles as hematopoietic progenitor kinase 1 (HPK1) inhibitors and methods using same” (1st Biotherapeutics, Inc., priority 2020, dated 2023):

Target: recombinant human HPK1 (Homo sapiens (Human), UniProt Q92918)
Assay: HPK1 kinase assay (ADP-Glo)
Assay type: biochemical
Conditions: 25 μM ATP, MBP substrate
Procedure, shortened: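 Activity was read as ADP formed, detected by ADP-Glo luminescence after the reaction of 5 ng recombinant human HPK1 with MBP and ATP (stocks 0.5 μg/μl and 25 μM) for 40 min at 30 °C. Buffer was Tris pH 7.5 with MgCl2, BSA and DTT, with compound in 0.5% DMSO. IC50 came from inhibition curves.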

Chain of recombinant human HPK1 (Q92918 whole entry): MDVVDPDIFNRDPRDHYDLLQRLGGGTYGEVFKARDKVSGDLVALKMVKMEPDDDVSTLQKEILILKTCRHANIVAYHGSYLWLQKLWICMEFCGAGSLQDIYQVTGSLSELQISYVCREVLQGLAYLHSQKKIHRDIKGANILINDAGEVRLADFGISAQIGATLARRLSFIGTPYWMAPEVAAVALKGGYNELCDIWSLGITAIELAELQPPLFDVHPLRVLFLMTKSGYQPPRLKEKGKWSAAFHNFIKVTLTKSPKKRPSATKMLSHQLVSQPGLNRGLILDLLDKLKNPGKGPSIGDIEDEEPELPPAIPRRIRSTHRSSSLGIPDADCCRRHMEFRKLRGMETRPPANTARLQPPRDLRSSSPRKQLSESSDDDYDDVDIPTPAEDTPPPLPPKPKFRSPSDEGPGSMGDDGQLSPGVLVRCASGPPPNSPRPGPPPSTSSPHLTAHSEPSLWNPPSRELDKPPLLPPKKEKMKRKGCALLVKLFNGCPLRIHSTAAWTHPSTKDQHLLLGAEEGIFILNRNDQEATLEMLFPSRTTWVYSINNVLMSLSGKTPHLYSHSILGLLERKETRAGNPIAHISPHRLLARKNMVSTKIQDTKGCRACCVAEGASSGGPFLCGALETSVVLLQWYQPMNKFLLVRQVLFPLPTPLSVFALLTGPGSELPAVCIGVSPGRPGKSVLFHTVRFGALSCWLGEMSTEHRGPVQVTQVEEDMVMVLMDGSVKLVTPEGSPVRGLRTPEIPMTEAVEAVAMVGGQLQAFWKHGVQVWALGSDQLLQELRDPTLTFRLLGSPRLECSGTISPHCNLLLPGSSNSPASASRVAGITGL

IC50 [nM]	SMILES
101 to 500	CC(=O)Nc1c(F)c(C)c(-c2ccc3nc(NC(=O)[C@@H]4C[C@@H]4F)sc3n2)c2cn[nH]c12 [Example 181, (1S,2S)-N-(5-(7-acetamido-6-fluoro-5-methyl-1H-indazol-4-yl)thiazolo[5,4-b]pyridin-2-yl)-2-fluorocyclopropane-1-carboxamide]
< 100	COC(=O)c1c(F)c(C)c(-c2ccc3nc(NC(=O)[C@@H]4C[C@@H]4F)sc3n2)c2cn[nH]c12 [Example 183, methyl 6-fluoro-4-(2-((1S,2S)-2-fluorocyclopropane-1-carboxamido)thiazolo[5,4-b]pyridin-5-yl)-5-methyl-1H-indazole-7-carboxylate]
101 to 500	CS(=O)(=O)c1c(F)c(Cl)c(-c2ccc3nc(NC(=O)[C@@H]4C[C@@H]4F)sc3n2)c2cn[nH]c12 [Example 185, (1S,2S)-N-(5-(5-chloro-6-fluoro-7-(methylsulfonyl)-1H-indazol-4-yl)thiazolo[5,4-b]pyridin-2-yl)-2-fluorocyclopropane-1-carboxamide]
< 100	Cc1c(F)c(F)c2[nH]ncc2c1-c1ccc2nc(NC(=O)[C@@H]3C[C@@H]3F)sc2n1 [Example 186, (1S,2S)-N-(5-(6,7-difluoro-5-methyl-1H-indazol-4-yl)thiazolo[5,4-b]pyridin-2-yl)-2-fluorocyclopropane-1-carboxamide]
< 100	CSc1c(F)c(F)c2[nH]ncc2c1-c1ccc2nc(NC(=O)[C@@H]3C[C@@H]3F)sc2n1 [Example 187, (1S,2S)-N-(5-(6,7-difluoro-5-(methylthio)-1H-indazol-4-yl)thiazolo[5,4-b]pyridin-2-yl)-2-fluorocyclopropane-1-carboxamide]
> 1000	Cc1c(F)c(C(=O)O)c2[nH]ncc2c1-c1ccc2nc(NC(=O)[C@@H]3C[C@@H]3F)sc2n1 [Example 188, 6-fluoro-4-(2-((1S,2S)-2-fluorocyclopropane-1-carboxamido)thiazolo[5,4-b]pyridin-5-yl)-5-methyl-1H-indazole-7-carboxylic acid]
< 100	CC(=O)N(C)c1c(F)c(Cl)c(-c2ccc3nc(NC(=O)[C@@H]4C[C@@H]4F)sc3n2)c2cn[nH]c12 [Example 189, (1S,2S)-N-(5-(5-chloro-6-fluoro-7-(N-methylacetamido)-1H-indazol-4-yl)thiazolo[5,4-b]pyridin-2-yl)-2-fluorocyclopropane-1-carboxamide]
< 100	CNNc1c(F)c(Cl)c(-c2ccc3nc(NC(=O)[C@@H]4C[C@@H]4F)sc3n2)c2cn[nH]c12 [Example 191, (1S,2S)-N-(5-(5-chloro-6-fluoro-7-(2-methylhydrazineyl)-1H-indazol-4-yl)thiazolo[5,4-b]pyridin-2-yl)-2-fluorocyclopropane-1-carboxamide]
< 100	CN(Nc1c(F)c(Cl)c(-c2ccc3nc(NC(=O)[C@@H]4C[C@@H]4F)sc3n2)c2cn[nH]c12)C(=O)OC(C)(C)C [Example 192, tert-butyl 2-(5-chloro-6-fluoro-4-(2-((1S,2S)-2-fluorocyclopropane-1-carboxamido)thiazolo[5,4-b]pyridin-5-yl)-1H-indazol-7-yl)-1-methylhydrazine-1-carboxylate]
101 to 500	CNC(=O)c1c(F)c(Cl)c(-c2ccc3nc(NC(=O)[C@@H]4C[C@@H]4F)sc3n2)c2cn[nH]c12 [Example 195, 5-chloro-6-fluoro-4-(2-((1S,2S)-2-fluorocyclopropane-1-carboxamido)thiazolo[5,4-b]pyridin-5-yl)-N-methyl-1H-indazole-7-carboxamide]
< 100	Cc1c(F)c(C(=O)N(C)C)c2[nH]ncc2c1-c1ccc2nc(NC(=O)[C@@H]3C[C@@H]3F)sc2n1 [Example 197, 6-fluoro-4-(2-((1S,2S)-2-fluorocyclopropane-1-carboxamido)thiazolo[5,4-b]pyridin-5-yl)-N,N,5-trimethyl-1H-indazole-7-carboxamide]
< 100	O=C(Nc1nc2ccc(-c3c(C(F)(F)F)c(F)c(Cl)c4[nH]ncc34)nc2s1)[C@@H]1C[C@@H]1F [Example 198, (1S,2S)-N-(5-(7-chloro-6-fluoro-5-(trifluoromethyl)-1H-indazol-4-yl)thiazolo[5,4-b]pyridin-2-yl)-2-fluorocyclopropane-1-carboxamide]
< 100	CCc1c(F)c(N(C)CC)c2[nH]ncc2c1-c1ccc2nc(NC(=O)[C@@H]3C[C@@H]3F)sc2n1 [Example 200, (1S,2S)-N-(5-(5-ethyl-7-(ethyl(methyl)amino)-6-fluoro-1H-indazol-4-yl)thiazolo[5,4-b]pyridin-2-yl)-2-fluorocyclopropane-1-carboxamide]
> 1000	CCOc1c(F)cc2[nH]ncc2c1-c1ccc2nc(NC(=O)[C@@H]3C[C@@H]3F)sc2n1 [Example 201, (1S,2S)-N-(5-(5-ethoxy-6-fluoro-1H-indazol-4-yl)thiazolo[5,4-b]pyridin-2-yl)-2-fluorocyclopropane-1-carboxamide]
< 100	CNC(=O)OCCN(C)c1c(F)c(C)c(-c2ccc3nc(NC(=O)[C@@H]4C[C@@H]4F)sc3n2)c2cn[nH]c12 [Example 202, 2-((6-fluoro-4-(2-((1S,2S)-2-fluorocyclopropane-1-carboxamido)thiazolo[5,4-b]pyridin-5-yl)-5-methyl-1H-indazol-7-yl)(methyl)amino)ethyl methylcarbamate]
< 100	Cc1c(F)c(N(C)CCO)c2[nH]ncc2c1-c1ccc2nc(NC(=O)[C@@H]3C[C@@H]3F)sc2n1 [Example 204, (1S,2S)-2-fluoro-N-(5-(6-fluoro-7-((2-hydroxyethyl)(methyl)amino)-5-methyl-1H-indazol-4-yl)thiazolo[5,4-b]pyridin-2-yl)cyclopropane-1-carboxamide]
< 100	Cc1c(F)c(C(F)(F)F)c2[nH]ncc2c1-c1ccc2nc(NC(=O)[C@@H]3C[C@@H]3F)sc2n1 [Example 205, (1S,2S)-2-fluoro-N-(5-(6-fluoro-5-methyl-7-(trifluoromethyl)-1H-indazol-4-yl)thiazolo[5,4-b]pyridin-2-yl)cyclopropane-1-carboxamide]
101 to 500	CNC(=O)c1c(F)c(C)c(-c2ccc3nc(NC(=O)[C@@H]4C[C@@H]4F)sc3n2)c2cn[nH]c12 [Example 206, 6-fluoro-4-(2-((1S,2S)-2-fluorocyclopropane-1-carboxamido)thiazolo[5,4-b]pyridin-5-yl)-N,5-dimethyl-1H-indazole-7-carboxamide]
< 100	CN(C)c1c(F)c(C(F)(F)F)c(-c2ccc3nc(NC(=O)[C@@H]4C[C@@H]4F)sc3n2)c2cn[nH]c12 [Example 207, (1S,2S)-N-(5-(7-(dimethylamino)-6-fluoro-5-(trifluoromethyl)-1H-indazol-4-yl)thiazolo[5,4-b]pyridin-2-yl)-2-fluorocyclopropane-1-carboxamide]
< 100	O=C(Nc1nc2ccc(-c3c(Cl)c(F)c(F)c4[nH]ncc34)nc2s1)[C@@H]1C[C@@H]1F [Example 208, (1S,2S)-N-(5-(5-chloro-6,7-difluoro-1H-indazol-4-yl)thiazolo[5,4-b]pyridin-2-yl)-2-fluorocyclopropane-1-carboxamide 2,2,2-trifluoroacetate]
< 100	O=C(Nc1nc2ccc(-c3c(Cl)c(F)c(C(F)F)c4[nH]ncc34)nc2s1)[C@@H]1C[C@@H]1F [Example 209, (1S,2S)-N-(5-(5-chloro-7-(difluoromethyl)-6-fluoro-1H-indazol-4-yl)thiazolo[5,4-b]pyridin-2-yl)-2-fluorocyclopropane-1-carboxamide]
